Source: patent US5543415A, “Antidepressants” (Kyowa Hakko Kogyo Co., Ltd., priority 1992, dated 1996)

test system: ddY-strain male mice; experiment: Acute Toxicity Test (minimum lethal dose, oral); assay type: in vivo; settings: seven days after administration
Protocol: Test compounds were orally administered to groups of ddY-strain male mice weighing 20±1 g, each group consisting of three mice. Seven days after the administration, minimum lethal dose (MLD) of each compound was determined by observing the mortality.

SMILES	MLD (minimum lethal dose) [mg/kg]
CCn1c(=O)c2[nH]c(/C=C/c3ccc(OC)c(F)c3)nc2n(CC)c1=O [Compound 172, (E)-1,3-Diethyl-8-(3-fluoro-4-methoxystyryl)xanthine]	> 100
CCCn1c(=O)c2c(nc(/C=C/c3cccc(OC)c3OC)n2C)n(CCC)c1=O [Compound 30, (E)-8-(2,3-Dimethoxystyryl)-7-methyl-1,3-dipropylxanthine]	> 300
CCn1c(=O)c2[nH]c(/C=C/c3ccc(OC)c(C)c3)nc2n(CC)c1=O [Compound 174, (E)-1,3-Diethyl-8-(4-methoxy-3-methylstyryl)xanthine]	> 100
CCCn1c(=O)c2c(nc(/C=C\c3ccc(OC)c(OC)c3)n2C)n(CCC)c1=O [Compound 47, (Z)-8-(3,4-Dimethoxystyryl)-7-methyl-1,3-dipropylxanthine]	> 300
CCn1c(=O)c2[nH]c(/C=C/c3cc(C)ccc3C)nc2n(CC)c1=O [Compound 109, (E)-8-(2,5-Dimethylstyryl)-1,3-diethylxanthine]	> 300
CCn1c(=O)c2[nH]c(/C=C/c3cc(C(F)(F)F)cc(C(F)(F)F)c3)nc2n(CC)c1=O [Compound 153, (E)-8-[3,5-Bis(trifluoromethyl)styryl]-1,3-diethylxanthine]	> 100
CCCn1c(=O)c2[nH]c(/C=C/c3ccc(OC)c(C)c3C)nc2n(CCC)c1=O [Compound 13, (E)-8-(4-Methoxy-2,3-dimethylstyryl)-1,3-dipropylxanthine]	> 300
CCn1c(=O)c2c(nc(/C=C/c3ccc(F)c(Cl)c3)n2C)n(CC)c1=O [Compound 177, (E)-8-(3-Chloro-4-fluorostyryl)-1,3-diethyl-7-methylxanthine]	> 100
CCn1c(=O)c2[nH]c(/C=C/c3cc(OC)cc(OC)c3)nc2n(CC)c1=O [Compound 129, (E)-8-(3,5-Dimethoxystyryl)-1,3-diethylxanthine]	> 100
CCn1c(=O)c2[nH]c(/C=C/c3ccccc3F)nc2n(CC)c1=O [Compound 167, (E)-1,3-Diethyl-8-(2-fluorostyryl)xanthine]	> 100
CCn1c(=O)c2[nH]c(/C=C/c3ccc(OC)c(OC)c3Cl)nc2n(CC)c1=O [Compound 105, (E)-8-(2-Chloro-3,4-dimethoxystyryl)-1,3-diethylxanthine]	> 100
CCn1c(=O)c2c(nc(/C=C/c3ccc4c(c3)OCCO4)n2C)n(CC)c1=O [Compound 90, (E)-8-[2-(1,4-Benzodioxan-6-yl)vinyl]-1,3-diethyl-7-methylxanthine]	> 300
CCCn1c(=O)c2[nH]c(/C=C/c3ccccc3F)nc2n(CCC)c1=O [Compound 43, (E)-8-(2-Fluorostyryl)-1,3-dipropylxanthine]	> 100
CCn1c(=O)c2[nH]c(/C=C/c3ccc4c(c3)OCO4)nc2n(CC)c1=O [Compound 87, (E)-1,3-Diethyl-8-(3,4-methylenedioxystyryl)xanthine]	> 300
CCCn1c(=O)c2nc(/C=C/c3cccc(F)c3)[nH]c2n(CCC)c1=O [Compound 37, (E)-8-(3-Fluorostyryl)-1,3-dipropylxanthine]	> 100
CCCn1c(=O)c2c(nc(/C=C/c3ccc(C)c(C)c3)n2C)n(CCC)c1=O [Compound 32, (E)-8-(3,4-Dimethylstyryl)-7-methyl-1,3-dipropylxanthine]	> 300
CCn1c(=O)c2[nH]c(/C=C/c3ccc(N(C)C)cc3)nc2n(CC)c1=O [Compound 169, (E)-8-[4-(N,N-Dimethylamino)styryl]-1,3-diethylxanthine]	> 100

SMILES	MLD (minimum lethal dose) [mg/kg]
COc1ccc(/C=C/c2nc3c(c(=O)n(C)c(=O)n3C)n2C)c(OC)c1 [Compound 100, (E)-8-(2,4-Dimethoxystyryl)caffeine]	> 300
C=CCn1c(=O)c2nc(/C=C/c3cc(OC)c(OC)c(OC)c3)[nH]c2n(CC=C)c1=O [Compound 12, (E)-1,3-diallyl-8-(3,4,5-trimethoxystyryl)xanthine]	> 300
CCn1c(=O)c2[nH]c(/C=C/c3ccc(OC)c(C)c3OC)nc2n(CC)c1=O [Compound 85, (E)-8-(2,4-Dimethoxy-3-methylstyryl)-1,3-diethylxanthine]	> 300
CCCn1c(=O)c2[nH]c(/C=C/c3cc(OC)c(OC)cc3Br)nc2n(CCC)c1=O [Compound 58, (E)-8-(2-Bromo-4,5-dimethoxystyryl)-1,3-dipropylxanthine]	> 300
CCn1c(=O)c2c(nc(/C=C/c3cccc(OC(F)(F)F)c3)n2C)n(CC)c1=O [Compound 144, (E)-1,3-Diethyl-7-methyl-8-(3-trifluoromethoxystyryl)xanthine]	> 100
CCCCOc1ccc(/C=C/c2nc3c([nH]2)c(=O)n(CC)c(=O)n3CC)cc1 [Compound 147, (E)-8-(4-Butoxystyryl)-1,3-diethylxanthine]	> 100
CCn1c(=O)c2c(nc(/C=C/c3cccc(F)c3)n2C)n(CC)c1=O [Compound 128, (E)-1,3-Diethyl-8-(3-fluorostyryl)-7-methylxanthine]	> 300
CCCn1c(=O)c2c(nc(/C=C\c3ccc(OC)c(OC)c3)n2C)n(CCC)c1=O [Compound 65, (Z)-8-(3,4-Dimethoxystyryl)-7-methyl-1,3-dipropylxanthine]	> 300
CCCn1c(=O)c2[nH]c(/C=C/c3ccccc3Cl)nc2n(CCC)c1=O [Compound 41, (E)-8-(2-Chlorostyryl)-1,3-dipropylxanthine]	> 100
CCCn1c(=O)c2c(nc(/C=C/c3ccccc3F)n2C)n(CCC)c1=O [Compound 44, (E)-8-(2-Fluorostyryl)-7-methyl-1,3-dipropylxanthine]	> 100
CCCn1c(=O)c2[nH]c(/C=C/c3ccc(C)c(C)c3)nc2n(CCC)c1=O [Compound 31, (E)-8-(3,4-Dimethylstyryl)-1,3-dipropylxanthine]	> 100
CCn1c(=O)c2[nH]c(/C=C/c3ccc(O)cc3)nc2n(CC)c1=O [Compound 193, (E)-1,3-Diethyl-8-(4-hydroxystyryl)xanthine]	> 100
CCCn1c(=O)c2c(nc(/C=C/c3ccc(OCOC)c(OCOC)c3)n2C)n(CCC)c1=O [Compound 68, (E)-8-[3,4-Bis(methoxymethoxy)styryl]-7-methyl-1,3-dipropylxanthine]	> 100
COc1ccc(/C=C/c2nc3c([nH]2)c(=O)n(C)c(=O)n3C)c(OC)c1 [Compound 99, (E)-8-(2,4-Dimethoxystyryl)theophylline]	> 100
CCCn1c(=O)c2c(nc(/C=C/c3cc(OC)c(OC)cc3OC)n2C)n(CCC)c1=O [Compound 24, (E)-7-Methyl-1,3-dipropyl-8-(2,4,5-trimethoxystyryl)xanthine]	> 300
CCCn1c(=O)c2c(nc(/C=C/c3ccc(OC)c4ccccc34)n2C)n(CCC)c1=O [Compound 63, (E)-8-[2-(4-Methoxynaphthyl)vinyl]-7-methyl-1,3-dipropylxanthine]	> 300
